Test results published in patent publication EP0324390A2, “Nigericin derivatives, method for their preparation, compositions containing them and use of these compositions” (priority 1988, dated 1989).
≈ marks a conversion by molar mass, not a printed value.

Assays:
Test in all cases: Agar dilution test according to Lorian (antibacterial activity)
Type in all cases: cell-based
[1] = system: Strept. pyogenes (308 A)
Method: (§1) Die antibakterielle Wirksamkeit der erfindungsgemäßen Verbindungen wurde im Agar-Verdünnungstest nach Lorian (Antibiotics in Laboratory Medicine, Williams & Wilkins, Baltimore/London, 1980) bestimmt. Dabei wurden die Präparate in einer geometrischen Verdünnungsreihe mit dem Faktor 2 in Müller Hinton Agar verdünnt. Eine Petrischale enthielt nur Müller Hinton Agar und diente zur Kontrolle des Bakterienwachstums. Die Petrischalen wurden dann mit einem Denley-Multipoint-Inokulator, welcher 0,6 ul einer 1 : 100 verdünnten 18-Stunden-Kultur der Testbakterien übertrug, mit den entsprechenden Testbakterien beimpft. Nach 16 bis 18 Stunden Inkubation bei 37^. C wurden die Petrischalen makroskopisch auf Bakterienwachstum untersucht.
(§2) Die niedrigste Konzentration der erfindungsgemäßen Verbindungen, welche das Bakterienwachstum noch vollständig verhinderte, wurde als MIC (Minimum Inhibitory Concentration) angenommen.
(§3) In Tabelle 4 ist die Wirkung (Angabe des MIC in µg/ml) von verschiedenen erfindungsgemäßen Verbindungen gegen folgende Bakterien aufgeführt: • Staph. aureus (SG 511), Staph. aureus (285), Staph. aureus (503), Strept. pyogenes (308 A), Strept pyogenes (77 A), Strept. faecium (D).

[2] = system: Strept. faecium (D)
Method: as §1, §2, §3

[3] = system: Staph. aureus (SG 511)
Method: as §1, §2, §3

[4] = system: Strept. pyogenes (77 A)
Method: as §1, §2, §3

[5] = system: Staph. aureus (285)
Method: as §1, §2, §3

[6] = system: Staph. aureus (503)
Method: as §1, §2, §3

[7] = Müller Hinton Agar, 16 to 18 h at 37 C, lowest concentration fully preventing growth

Row | SMILES | MIC [1, 7] | MIC [2, 7] | MIC [3, 7] | MIC [4, 7] | MIC [5, 7] | MIC [6, 7] | MIC ([1]; Streptococcus pyogenes) [µg/mL] | MIC ([2]; Enterococcus faecium) [µg/mL] | MIC ([3]; Staphylococcus aureus) [µg/mL] | MIC ([4]; Streptococcus pyogenes) [µg/mL] | MIC ([5]; Staphylococcus aureus) [µg/mL] | MIC ([6]; Staphylococcus aureus) [µg/mL]
1 | COC1CC(CC2CCC(C)C(C(C)C(=O)O)O2)OC2(OC(C)(C3CCC(C)(C4OC(C5OC(CO)(OC)C(C)CC5C)CC4C)O3)CC2C)C1C (stereo not drawn) [Beispiel 16] | 0,39 µg/ml | 3,13 µg/ml | 1,56 µg/ml | 0,39 µg/ml | 1,56 µg/ml | 1,56 µg/ml | – | – | – | – | – | –
2 | COC1CC(CC2CCC(C)C(C(C)C(=O)O)O2)OC2(OC(C)(C3CCC(C)(C4OC(C5OC(O)(COC(=O)c6ccccc6)C(C)CC5C)CC4C)O3)CC2C)C1C (stereo not drawn) [Beispiel 6] | 0,013 µg/ml | 0,391 µg/ml | 0,098 µg/ml | 0,013 µg/ml | 0,391 µg/ml | 0,098 µg/ml | – | – | – | – | – | –
3 | COC1CC(CC2CCC(C)C(C(C)C(=O)O)O2)OC2(OC(C)(C3CCC(C)(C4OC(C5OC(O)(COC(=O)c6ccco6)C(C)CC5C)CC4C)O3)CC2C)C1C (stereo not drawn) [Beispiel 8] | 0,013 µg/ml | 0,391 µg/ml | 0,195 µg/ml | 0,013 µg/ml | 0,391 µg/ml | 0,195 µg/ml | – | – | – | – | – | –
4 | COC1CC(CC2CCC(C)C(C(C)C(=O)O)O2)OC2(OC(C)(C3CCC(C)(C4OC(C5OC(O)(COC(=O)Nc6ccc(Cl)cc6)C(C)CC5C)CC4C)O3)CC2C)C1C (stereo not drawn) [Beispiel 14] | 25,0 µg/ml | 100,0 µg/ml | 100,0 µg/ml | 12,5 µg/ml | 100,0 µg/ml | 50,0 µg/ml | – | – | – | – | – | –
5 | COC1CC(CC2CCC(C)C(C(C)C(=O)O)O2)OC2(OC(C)(C3CCC(C)(C4OC(C5OC(COS(C)(=O)=O)(OC)C(C)CC5C)CC4C)O3)CC2C)C1C (stereo not drawn) [Beispiel 20] | – | – | – | – | – | – | 6.25 (≈ 7.65 µM) | 25 (≈ 30.6 µM) | 25 (≈ 30.6 µM) | 6.25 (≈ 7.65 µM) | 25 (≈ 30.6 µM) | 12.5 (≈ 15.3 µM)
6 | CCCCCCCCCCCCCCCCCCCCCC(=O)OCC1(O)OC(C2CC(C)C(C3(C)CCC(C4(C)CC(C)C5(OC(CC6CCC(C)C(C(C)C(=O)O)O6)CC(OC)C5C)O4)O3)O2)C(C)CC1C (stereo not drawn) [Beispiel 30] | – | – | – | – | – | – | 25 (≈ 23.9 µM) | 100 (≈ 95.5 µM) | 100 (≈ 95.5 µM) | 25 (≈ 23.9 µM) | 100 (≈ 95.5 µM) | 50 (≈ 47.7 µM)
7 | COC1CC(CC2CCC(C)C(C(C)C(=O)O)O2)OC2(OC(C)(C3CCC(C)(C4OC(C5OC(O)(COC(=O)NCc6ccccc6)C(C)CC5C)CC4C)O3)CC2C)C1C (stereo not drawn) [Beispiel 13] | 0,78 µg/ml | 12,5 µg/ml | 3,13 µg/ml | 0,39 µg/ml | 6,25 µg/ml | 3,13 µg/ml | – | – | – | – | – | –
8 | COC1CC(CC2CCC(C)C(C(C)C(=O)O)O2)OC2(OC(C)(C3CCC(C)(C4OC(C5OC(O)(COC(=O)c6ccccc6C(=O)O)C(C)CC5C)CC4C)O3)CC2C)C1C (stereo not drawn) [Beispiel 31] | – | – | – | – | – | – | – | – | 0.78 (≈ 0.893 µM) | – | 0.78 (≈ 0.893 µM) | 0.78 (≈ 0.893 µM)
9 | COC1CC(CC2CCC(C)C(C(C)C(=O)O)O2)OC2(OC(C)(C3CCC(C)(C4OC(C5OC(O)(COC(=O)c6c(Br)c(Br)c(Br)c(Br)c6C(=O)O)C(C)CC5C)CC4C)O3)CC2C)C1C (stereo not drawn) [Beispiel 29] | – | – | – | – | – | – | – | 3.13 (≈ 2.63 µM) | 1.56 (≈ 1.31 µM) | – | 3.13 (≈ 2.63 µM) | 1.56 (≈ 1.31 µM)
10 | COC1CC(CC2CCC(C)C(C(C)C(=O)O)O2)OC2(OC(C)(C3CCC(C)(C4OC(C5OC(O)(COC(C)=O)C(C)CC5C)CC4C)O3)CC2C)C1C (stereo not drawn) [Beispiel 5] | 0,098 µg/ml | 0,781 µg/ml | 0,391 µg/ml | 0,098 µg/ml | 0,391 µg/ml | 0,391 µg/ml | – | – | – | – | – | –
11 | COC1CC(CC2CCC(C)C(C(C)C(=O)O)O2)OC2(OC(C)(C3CCC(C)(C4OC(C5OC(O)(COC(=O)CCC(=O)O)C(C)CC5C)CC4C)O3)CC2C)C1C (stereo not drawn) [Beispiel 11] | 0,025 µg/ml | 0,391 µg/ml | 0,391 µg/ml | 0,025 µg/ml | 0,195 µg/ml | 0,098 µg/ml | – | – | – | – | – | –
12 | COC1CC(CC2CCC(C)C(C(C)C(=O)O)O2)OC2(OC(C)(C3CCC(C)(C4OC(C5OC(O)(COS(=O)(=O)O)C(C)CC5C)CC4C)O3)CC2C)C1C (stereo not drawn) [Beispiel 15] | 1,56 µg/ml | 3,13 µg/ml | 1,56 µg/ml | 0,78 µg/ml | 1,56 µg/ml | 0,78 µg/ml | – | – | – | – | – | –
13 | COC1CC(CC2CCC(C)C(C(C)C(=O)O)O2)OC2(OC(C)(C3CCC(C)(C4OC(C5OC(O)(COS(C)(=O)=O)C(C)CC5C)CC4C)O3)CC2C)C1C (stereo not drawn) [Beispiel 2] | 0,004 µg/ml | 0,195 µg/ml | 0,098 µg/ml | 0,013 µg/ml | 0,049 µg/ml | 0,049 µg/ml | – | – | – | – | – | –
14 | COC1CC(CC2CCC(C)C(C(C)C(=O)O)O2)OC2(OC(C)(C3CCC(C)(C4OC(C5OC(O)(COC(=O)CCOc6ccccc6)C(C)CC5C)CC4C)O3)CC2C)C1C (stereo not drawn) [Beispiel 4] | 0,098 µg/ml | 1,56 µg/ml | 0,78 µg/ml | 0,098 µg/ml | 1,56 µg/ml | 0,78 µg/ml | – | – | – | – | – | –
15 | COC1CC(CC2CCC(C)C(C(C)C(=O)O)O2)OC2(OC(C)(C3CCC(C)(C4OC(C5OC(O)(COC(=O)Nc6ccccc6)C(C)CC5C)CC4C)O3)CC2C)C1C (stereo not drawn) [Beispiel 12] | 0,098 µg/ml | 1,56 µg/ml | 0,781 µg/ml | 0,098 µg/ml | 3,13 µg/ml | 0,78 µg/ml | – | – | – | – | – | –
16 | CCCCCCCCCCCC(=O)OCC1(O)OC(C2CC(C)C(C3(C)CCC(C4(C)CC(C)C5(OC(CC6CCC(C)C(C(C)C(=O)O)O6)CC(OC)C5C)O4)O3)O2)C(C)CC1C (stereo not drawn) [Beispiel 10] | 0,781 µg/ml | 6,25 µg/ml | 6,25 µg/ml | 0,781 µg/ml | 6,25 µg/ml | 3,13 µg/ml | – | – | – | – | – | –
17 | COC1CC(CC2CCC(C)C(C(C)C(=O)O)O2)OC2(OC(C)(C3CCC(C)(C4OC(C5OC(O)(COC(=O)C=C(C)C(=O)O)C(C)CC5C)CC4C)O3)CC2C)C1C (stereo not drawn) [Beispiel 22] | – | – | – | – | – | – | 0.78 (≈ 0.932 µM) | 6.25 (≈ 7.47 µM) | 6.25 (≈ 7.47 µM) | 0.78 (≈ 0.932 µM) | 6.25 (≈ 7.47 µM) | 6.25 (≈ 7.47 µM)
18 | CCOC1(CO)OC(C2CC(C)C(C3(C)CCC(C4(C)CC(C)C5(OC(CC6CCC(C)C(C(C)C(=O)O)O6)CC(OC)C5C)O4)O3)O2)C(C)CC1C (stereo not drawn) [Beispiel 17] | 0,098 µg/ml | 1,56 µg/ml | 1,56 µg/ml | 0,098 µg/ml | 1,56 µg/ml | 0,78 µg/ml | – | – | – | – | – | –
19 | COC1CC(CC2CCC(C)C(C(C)C(=O)[O-])O2)OC2(OC(C)(C3CCC(C)(C4OC(C5OC(O)(COC(=O)CCC(=O)[O-])C(C)CC5C)CC4C)O3)CC2C)C1C.[Mg+2] (stereo not drawn) [Beispiel 37] | 0,007 µg/ml | 0,098 µg/ml | 0,098 µg/ml | 0,007 µg/ml | 0,098 µg/ml | 0,049 µg/ml | – | – | – | – | – | –
20 | COC1CC(CC2CCC(C)C(C(C)C(=O)O)O2)OC2(OC(C)(C3CCC(C)(C4OC(C5OC(O)(COC(=O)Cc6ccccc6)C(C)CC5C)CC4C)O3)CC2C)C1C (stereo not drawn) [Beispiel 7] | 0,004 µg/ml | 0,391 µg/ml | 0,195 µg/ml | 0,004 µg/ml | 0,391 µg/ml | 0,195 µg/ml | – | – | – | – | – | –
21 | COC1CC(CC2CCC(C)C(C(C)C(=O)O)O2)OC2(OC(C)(C3CCC(C)(C4OC(C5OC(O)(COC(=O)c6cccs6)C(C)CC5C)CC4C)O3)CC2C)C1C (stereo not drawn) [Beispiel 9] | 0,007 µg/ml | 0,195 µg/ml | 0,049 µg/ml | 0,007 µg/ml | 0,195 µg/ml | 0,049 µg/ml | – | – | – | – | – | –
22 | COC1CC(CC2CCC(C)C(C(C)C(=O)O)O2)OC2(OC(C)(C3CCC(C)(C4OC(C5OC(O)(COC(=O)COc6ccccc6)C(C)CC5C)CC4C)O3)CC2C)C1C (stereo not drawn) [Beispiel 3] | 0,049 µg/ml | 0,781 µg/ml | 0,391 µg/ml | 0,049 µg/ml | 0,391 µg/ml | 0,391 µg/ml | – | – | – | – | – | –
23 | COC1CC(CC2CCC(C)C(C(C)C(=O)[O-])O2)OC2(OC(C)(C3CCC(C)(C4OC(C5OC(O)(CO)C(C)CC5C)CC4C)O3)CC2C)C1C.[K+] (stereo not drawn) [Beispiel 34] | < 0,002 µg/ml | 0,098 µg/ml | 0,025 µg/ml | < 0,002 µg/ml | 0,025 µg/ml | < 0,002 µg/ml | – | – | – | – | – | –
24 | COC1CC(CC2CCC(C)C(C(C)C(=O)O)O2)OC2(OC(C)(C3CCC(C)(C4OC(C5OC(O)(COC(=O)C(C)C)C(C)CC5C)CC4C)O3)CC2C)C1C (stereo not drawn) [Beispiel 27] | – | – | – | – | – | – | – | > 100 | 0.39 (≈ 0.491 µM) | – | 0.39 (≈ 0.491 µM) | 0.19 (≈ 0.239 µM)
25 | COC1CC(CC2CCC(C)C(C(C)C(=O)O)O2)OC2(OC(C)(C3CCC(C)(C4OC(C5OC(O)(COC(=O)C=CC(=O)O)C(C)CC5C)CC4C)O3)CC2C)C1C (stereo not drawn) [Beispiel 23] | – | – | – | – | – | – | – | 0.39 (≈ 0.474 µM) | – | – | – | –
